Laboratory results reported in ChEMBL document CHEMBL4000238, “Discovery of core-structurally novel PTP1B inhibitors with specific selectivity containing oxindole-fused spirotetrahydrofurochroman by one-pot reaction” (Bioorg Med Chem Lett, 2017).

What follows are compounds tested against T1, Tyrosine-protein phosphatase non-receptor type 6 (Homo sapiens, UniProt P29350) (assay: Inhibition of GST-tagged human SHP1 expressed in Escherichia coli using pNPP as substrate).
T1 sequence (P29350 whole entry): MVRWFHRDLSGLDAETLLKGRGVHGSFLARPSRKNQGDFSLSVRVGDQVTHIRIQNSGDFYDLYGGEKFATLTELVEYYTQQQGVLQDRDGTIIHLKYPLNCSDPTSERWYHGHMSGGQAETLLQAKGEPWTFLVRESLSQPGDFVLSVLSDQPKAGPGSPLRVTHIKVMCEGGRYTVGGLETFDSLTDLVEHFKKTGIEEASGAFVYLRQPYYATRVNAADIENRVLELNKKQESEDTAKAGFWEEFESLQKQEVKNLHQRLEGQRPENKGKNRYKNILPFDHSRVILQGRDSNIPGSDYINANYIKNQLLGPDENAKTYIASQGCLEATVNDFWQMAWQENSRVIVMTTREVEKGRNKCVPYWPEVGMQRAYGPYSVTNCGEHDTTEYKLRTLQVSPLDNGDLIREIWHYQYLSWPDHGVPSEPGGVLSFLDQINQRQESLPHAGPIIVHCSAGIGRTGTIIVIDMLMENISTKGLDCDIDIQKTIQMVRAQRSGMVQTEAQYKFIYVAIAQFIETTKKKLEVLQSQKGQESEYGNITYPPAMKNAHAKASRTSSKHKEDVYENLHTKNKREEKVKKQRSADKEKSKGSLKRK

Question: With `Cc1ccc([C@H]2[C@]34NC(=O)C[C@H]3Oc3ccc(C)cc3[C@@H]4O[C@@]23C(=O)N(Cc2ccccc2)c2ccccc23)cc1` as the compound, how does the IC50 read?
Answer: 10.6 µM

Question: With `COC(=O)/C=C/Oc1c(OC)cccc1[C@@H]1O[C@@]2(C(=O)N(Cc3ccccc3)c3ccccc32)[C@@H](c2ccc(Br)cc2)[C@@H]1[N+](=O)[O-]` as the compound, how does the IC50 read?
Answer: 5.29 µM

The compounds below were run against T2, Tyrosine-protein phosphatase non-receptor type 2 (Homo sapiens) (UniProt P17706) (assay: Inhibition of GST-tagged human […] expressed in Escherichia coli at 20 ug/ml using pNPP as substrate relative to control).
T2 sequence (whole entry): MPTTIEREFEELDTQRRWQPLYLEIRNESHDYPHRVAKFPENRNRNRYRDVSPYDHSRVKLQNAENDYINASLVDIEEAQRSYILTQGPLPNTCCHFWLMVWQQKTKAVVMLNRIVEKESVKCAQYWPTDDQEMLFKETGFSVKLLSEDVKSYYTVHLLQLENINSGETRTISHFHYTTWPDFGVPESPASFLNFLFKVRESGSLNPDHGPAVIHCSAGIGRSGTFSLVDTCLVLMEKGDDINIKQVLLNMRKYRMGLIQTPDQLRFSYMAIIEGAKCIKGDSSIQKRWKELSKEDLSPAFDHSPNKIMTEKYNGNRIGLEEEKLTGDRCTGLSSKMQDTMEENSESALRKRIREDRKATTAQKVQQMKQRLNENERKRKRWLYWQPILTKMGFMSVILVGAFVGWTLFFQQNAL

Question: `COC(=O)C[C@H]1Oc2ccc(OC)cc2[C@@H]2O[C@@]3(C(=O)N(Cc4ccccc4)c4ccccc43)[C@@H](c3ccc(C)cc3)[C@]12[N+](=O)[O-]` was tested. Which inhibition did it give?
Answer: 10.3%

Question: How did the inhibition turn out when `Cc1ccc([C@H]2[C@]34NC(=O)C[C@H]3Oc3ccc(C)cc3[C@@H]4O[C@@]23C(=O)N(Cc2ccccc2)c2ccccc23)cc1` was run?
Answer: 19.4%

Question: For `COC(=O)/C=C/Oc1c(OC)cccc1[C@@H]1O[C@@]2(C(=O)N(Cc3ccccc3)c3ccccc32)[C@@H](c2ccc(Br)cc2)[C@@H]1[N+](=O)[O-]`, which inhibition is on record?
Answer: 38.3%

These compounds were tested against Receptor-type tyrosine-protein phosphatase F (Homo sapiens) (UniProt P10586) (assay: Inhibition of GST-tagged human LAR expressed in Escherichia coli at 20 ug/ml using pNPP as substrate relative to control).
Receptor-type tyrosine-protein phosphatase F (Homo sapiens), sequence (P10586 whole entry): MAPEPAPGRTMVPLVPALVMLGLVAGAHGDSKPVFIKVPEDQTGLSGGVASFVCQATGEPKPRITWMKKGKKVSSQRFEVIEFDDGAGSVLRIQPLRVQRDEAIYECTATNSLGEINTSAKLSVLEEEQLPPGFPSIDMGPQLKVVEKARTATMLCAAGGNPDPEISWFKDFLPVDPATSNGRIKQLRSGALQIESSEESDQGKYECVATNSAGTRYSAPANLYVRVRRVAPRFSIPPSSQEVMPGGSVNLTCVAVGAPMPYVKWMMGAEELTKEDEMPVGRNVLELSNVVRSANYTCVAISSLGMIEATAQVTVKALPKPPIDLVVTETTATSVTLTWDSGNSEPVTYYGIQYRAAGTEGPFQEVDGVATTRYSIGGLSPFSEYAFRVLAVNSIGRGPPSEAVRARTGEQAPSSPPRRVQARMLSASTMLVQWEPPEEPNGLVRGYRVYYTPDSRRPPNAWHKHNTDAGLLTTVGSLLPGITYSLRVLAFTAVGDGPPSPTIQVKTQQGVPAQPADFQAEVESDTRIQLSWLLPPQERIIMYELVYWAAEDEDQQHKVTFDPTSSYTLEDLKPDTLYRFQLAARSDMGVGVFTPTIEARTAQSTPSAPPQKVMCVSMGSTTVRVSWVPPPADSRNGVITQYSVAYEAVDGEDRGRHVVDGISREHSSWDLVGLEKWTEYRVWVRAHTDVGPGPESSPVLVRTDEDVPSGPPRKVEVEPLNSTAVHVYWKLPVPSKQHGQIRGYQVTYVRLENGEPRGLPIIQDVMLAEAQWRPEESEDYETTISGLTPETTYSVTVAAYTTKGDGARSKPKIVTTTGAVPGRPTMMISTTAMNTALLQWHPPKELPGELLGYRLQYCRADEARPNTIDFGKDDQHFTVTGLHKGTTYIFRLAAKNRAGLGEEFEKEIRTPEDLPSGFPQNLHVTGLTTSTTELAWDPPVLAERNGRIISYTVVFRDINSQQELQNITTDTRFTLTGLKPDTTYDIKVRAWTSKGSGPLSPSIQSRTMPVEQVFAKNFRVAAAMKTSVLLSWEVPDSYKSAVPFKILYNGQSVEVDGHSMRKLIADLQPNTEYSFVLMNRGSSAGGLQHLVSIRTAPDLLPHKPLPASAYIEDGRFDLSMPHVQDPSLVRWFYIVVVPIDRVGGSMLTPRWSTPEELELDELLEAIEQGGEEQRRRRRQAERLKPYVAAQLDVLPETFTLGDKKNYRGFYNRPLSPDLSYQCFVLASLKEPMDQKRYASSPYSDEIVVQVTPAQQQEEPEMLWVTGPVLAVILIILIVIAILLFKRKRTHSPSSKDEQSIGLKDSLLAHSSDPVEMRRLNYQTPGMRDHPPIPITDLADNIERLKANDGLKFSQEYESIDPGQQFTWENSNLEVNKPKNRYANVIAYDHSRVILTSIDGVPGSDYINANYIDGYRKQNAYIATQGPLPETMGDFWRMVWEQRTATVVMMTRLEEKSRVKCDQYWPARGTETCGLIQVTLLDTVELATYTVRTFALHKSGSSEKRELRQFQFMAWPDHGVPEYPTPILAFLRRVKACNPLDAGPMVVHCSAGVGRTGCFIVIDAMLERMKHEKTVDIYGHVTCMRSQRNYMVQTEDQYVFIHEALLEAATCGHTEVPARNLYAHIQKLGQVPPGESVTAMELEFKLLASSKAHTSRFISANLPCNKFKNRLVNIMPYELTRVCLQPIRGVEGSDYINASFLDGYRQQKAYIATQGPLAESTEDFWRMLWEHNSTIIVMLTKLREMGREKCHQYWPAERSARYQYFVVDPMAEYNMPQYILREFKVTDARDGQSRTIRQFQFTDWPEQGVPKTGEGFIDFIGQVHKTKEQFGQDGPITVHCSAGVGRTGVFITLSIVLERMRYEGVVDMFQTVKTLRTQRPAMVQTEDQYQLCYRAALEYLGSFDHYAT

Question: Which inhibition does the source give for `COC(=O)C[C@H]1Oc2ccc(OC)cc2[C@@H]2O[C@@]3(C(=O)N(Cc4ccccc4)c4ccccc43)[C@@H](c3ccc(C)cc3)[C@]12[N+](=O)[O-]` here?
Answer: 15.5%

Question: How did the inhibition turn out when `Cc1ccc([C@H]2[C@]34NC(=O)C[C@H]3Oc3ccc(C)cc3[C@@H]4O[C@@]23C(=O)N(Cc2ccccc2)c2ccccc23)cc1` was run?
Answer: 6.72%

Question: With `COC(=O)/C=C/Oc1c(OC)cccc1[C@@H]1O[C@@]2(C(=O)N(Cc3ccccc3)c3ccccc32)[C@@H](c2ccc(Br)cc2)[C@@H]1[N+](=O)[O-]` as the compound, how does the inhibition read?
Answer: 18.7%

What follows are compounds tested against T3, Tyrosine-protein phosphatase non-receptor type 1 (Homo sapiens, UniProt P18031) (assay: Inhibition of recombinant human PTP1B catalytic domain expressed in Escherichia coli BL21-CodonPlus (DE3) using pNPP as substrate measured for 2 mins).
T3 sequence (P18031 whole entry): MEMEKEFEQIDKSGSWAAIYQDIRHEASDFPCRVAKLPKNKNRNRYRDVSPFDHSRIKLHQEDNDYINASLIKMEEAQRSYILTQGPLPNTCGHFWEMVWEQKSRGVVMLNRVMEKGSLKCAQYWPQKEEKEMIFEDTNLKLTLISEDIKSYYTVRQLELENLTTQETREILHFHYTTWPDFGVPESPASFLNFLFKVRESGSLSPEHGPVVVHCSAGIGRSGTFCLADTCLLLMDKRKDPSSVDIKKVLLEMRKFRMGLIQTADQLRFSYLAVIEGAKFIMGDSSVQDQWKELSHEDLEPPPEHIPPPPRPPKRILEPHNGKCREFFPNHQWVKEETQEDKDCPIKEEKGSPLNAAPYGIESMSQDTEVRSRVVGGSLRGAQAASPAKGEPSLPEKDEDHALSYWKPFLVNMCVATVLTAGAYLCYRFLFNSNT

Question: Which IC50 does the source give for `O=C1C[C@H]2Oc3ccc(Cl)cc3[C@@H]3O[C@@]4(C(=O)N(Cc5ccccc5)c5ccccc54)[C@@H](c4ccc(Br)cc4)[C@]23N1` here?
Answer: 6.04 µM

Question: `COC(=O)/C=C/Oc1c(OC)cccc1[C@@H]1O[C@@]2(C(=O)N(Cc3ccccc3)c3ccccc32)[C@@H](c2ccc(C)cc2)[C@@H]1[N+](=O)[O-]` was tested. Which IC50 did it give?
Answer: 6.8 µM

Question: For `COc1cccc2c1O[C@@H]1CC(=O)N[C@]13[C@H]2O[C@@]1(C(=O)N(Cc2ccccc2)c2ccccc21)[C@H]3c1ccc(C)cc1`, which IC50 is on record?
Answer: 7.07 µM

Question: `COC(=O)C[C@H]1Oc2c(OC)cccc2[C@@H]2O[C@@]3(C(=O)N(Cc4ccccc4)c4ccccc43)[C@@H](c3ccc(C)cc3)[C@]12[N+](=O)[O-]` was tested. Which IC50 did it give?
Answer: 8.2 µM

Question: With `COc1ccc2c(c1)[C@@H]1O[C@@]3(C(=O)N(Cc4ccccc4)c4ccccc43)[C@@H](c3ccc(Br)cc3)[C@@]13NC(=O)C[C@H]3O2` as the compound, how does the IC50 read?
Answer: 6.48 µM

Question: Which IC50 does the source give for `Cc1ccc([C@H]2[C@]34NC(=O)C[C@H]3Oc3ccc(Cl)cc3[C@@H]4O[C@@]23C(=O)N(Cc2ccccc2)c2ccccc23)cc1` here?
Answer: 5.61 µM

Question: How did the IC50 turn out when `COc1ccc2c(c1)[C@@H]1O[C@@]3(C(=O)N(Cc4ccccc4)c4ccccc43)[C@@H](c3ccc(C)cc3)[C@@]13NC(=O)C[C@H]3O2` was run?
Answer: 7.98 µM

Question: How did the IC50 turn out when `COC(=O)C[C@H]1Oc2c(OC)cccc2[C@@H]2O[C@@]3(C(=O)N(Cc4ccccc4)c4ccccc43)[C@@H](c3ccc(Br)cc3)[C@]12[N+](=O)[O-]` was run?
Answer: 5.43 µM

Question: With `COC(=O)C[C@H]1Oc2ccc(Cl)cc2[C@@H]2O[C@@]3(C(=O)N(Cc4ccccc4)c4ccccc43)[C@@H](c3ccc(Br)cc3)[C@]12[N+](=O)[O-]` as the compound, how does the IC50 read?
Answer: 4.65 µM

Question: `COC(=O)C[C@H]1Oc2ccc(OC)cc2[C@@H]2O[C@@]3(C(=O)N(Cc4ccccc4)c4ccccc43)[C@@H](c3ccc(C)cc3)[C@]12[N+](=O)[O-]` was tested. Which IC50 did it give?
Answer: 4.53 µM

Question: How did the IC50 turn out when `COc1ccccc1[C@H]1[C@]23NC(=O)C[C@H]2Oc2c(OC)cccc2[C@@H]3O[C@@]12C(=O)N(Cc1ccccc1)c1ccccc12` was run?
Answer: 10 µM

Question: `COC(=O)/C=C/Oc1ccc(OC)cc1[C@@H]1O[C@@]2(C(=O)N(Cc3ccccc3)c3ccccc32)[C@@H](c2ccc(C)cc2)[C@@H]1[N+](=O)[O-]` was tested. Which IC50 did it give?
Answer: 13.2 µM

Question: How did the IC50 turn out when `COc1cccc2c1O[C@@H]1CC(=O)N[C@]13[C@H]2O[C@@]1(C(=O)N(Cc2ccccc2)c2ccccc21)[C@H]3c1ccc(Br)cc1` was run?
Answer: 6.19 µM

Question: With `COC(=O)/C=C/Oc1ccc(OC)cc1[C@@H]1O[C@@]2(C(=O)N(Cc3ccccc3)c3ccccc32)[C@@H](c2ccc(Br)cc2)[C@@H]1[N+](=O)[O-]` as the compound, how does the IC50 read?
Answer: 5.34 µM

Question: How did the IC50 turn out when `COC(=O)C[C@H]1Oc2c(OC)cccc2[C@@H]2O[C@@]3(C(=O)N(Cc4ccccc4)c4ccccc43)[C@@H](c3ccccc3OC)[C@]12[N+](=O)[O-]` was run?
Answer: 5.83 µM

Question: Which IC50 does the source give for `COC(=O)C[C@H]1Oc2ccc(OC)cc2[C@@H]2O[C@@]3(C(=O)N(Cc4ccccc4)c4ccccc43)[C@@H](c3ccc(Br)cc3)[C@]12[N+](=O)[O-]` here?
Answer: 6.67 µM

Question: How did the IC50 turn out when `Cc1ccc([C@H]2[C@]34NC(=O)C[C@H]3Oc3ccc(C)cc3[C@@H]4O[C@@]23C(=O)N(Cc2ccccc2)c2ccccc23)cc1` was run?
Answer: 4.72 µM

Question: For `COC(=O)/C=C/Oc1c(OC)cccc1[C@@H]1O[C@@]2(C(=O)N(Cc3ccccc3)c3ccccc32)[C@@H](c2ccc(Br)cc2)[C@@H]1[N+](=O)[O-]`, which IC50 is on record?
Answer: 3.89 µM

Question: Which IC50 does the source give for `Cc1ccc2c(c1)[C@@H]1O[C@@]3(C(=O)N(Cc4ccccc4)c4ccccc43)[C@@H](c3ccccc3)[C@@]13NC(=O)C[C@H]3O2` here?
Answer: 10.3 µM

These compounds were tested against T1, Tyrosine-protein phosphatase non-receptor type 6 (assay: Inhibition of GST-tagged human SHP1 expressed in Escherichia coli at 20 ug/ml using pNPP as substrate relative to control).

Question: `COC(=O)C[C@H]1Oc2ccc(OC)cc2[C@@H]2O[C@@]3(C(=O)N(Cc4ccccc4)c4ccccc43)[C@@H](c3ccc(C)cc3)[C@]12[N+](=O)[O-]` was tested. Which inhibition did it give?
Answer: 31.1%

Question: With `Cc1ccc([C@H]2[C@]34NC(=O)C[C@H]3Oc3ccc(C)cc3[C@@H]4O[C@@]23C(=O)N(Cc2ccccc2)c2ccccc23)cc1` as the compound, how does the inhibition read?
Answer: 96.1%

Question: How did the inhibition turn out when `COC(=O)/C=C/Oc1c(OC)cccc1[C@@H]1O[C@@]2(C(=O)N(Cc3ccccc3)c3ccccc32)[C@@H](c2ccc(Br)cc2)[C@@H]1[N+](=O)[O-]` was run?
Answer: 98.8%

These compounds were tested against T4, Tyrosine-protein phosphatase non-receptor type 2 (Homo sapiens, UniProt P17706) (assay: Inhibition of GST-tagged human […] expressed in Escherichia coli using pNPP as substrate).
T4 sequence (P17706 whole entry): T2 sequence (whole entry)

Question: With `Cc1ccc([C@H]2[C@]34NC(=O)C[C@H]3Oc3ccc(C)cc3[C@@H]4O[C@@]23C(=O)N(Cc2ccccc2)c2ccccc23)cc1` as the compound, how does the IC50 read?
Answer: 35.8 µM
